According to ChEMBL document CHEMBL4354835, “Selective Blockade of Neuronal BK (α + β4) Channels Preventing Epileptic Seizure” (J Med Chem, 2020):
Activity calls are given as the source filed them. The calls are words filed in the database; no cut-off is given here.

Legend:
Rattus norvegicus [1] = organism: Rattus norvegicus; experiment: Anticonvulsant activity against PTZ-induced epileptic seizure Sprague-Dawley rat model assessed as latency time of seizures compound infused into hippocampal region and 10 mins later injected with PTZ and measured for 2 hrs post PTZ-stimulation (reference value: 108.5 +/- 8.63 sec); type: functional
Rattus norvegicus [2] = organism: Rattus norvegicus; experiment: Effect on neuronal network in PTZ-induced epileptic seizures Sprague-Dawley rat model assessed as lowered PSD at alpha wave band compound infused into hippocampal region and 10 mins later injected with PTZ and measured after 2 hrs by power spectral density analysis; type: functional, organism-based
Rattus norvegicus [3] = organism: Rattus norvegicus; experiment: Effect on neuronal network in PTZ-induced epileptic seizures Sprague-Dawley rat model assessed as lowered PSD at gamma wave band compound infused into hippocampal region and 10 mins later injected with PTZ and measured after 2 hrs by power spectral density analysis; type: functional, organism-based
Homo sapiens [4] = organism: Homo sapiens; experiment: Inhibition of human BK alpha/human beta4 E122K mutant expressed in HEK293T cells assessed as K+ fractional outward current at 10 uM at -80 mV holding potential by whole cell patch clamp technique relative to control; type: cell-based
Rattus norvegicus [5] = organism: Rattus norvegicus; experiment: (§1) Neuroprotective activity in PTZ-induced epileptic seizure Sprague-Dawley rat model assessed as inhibition of hippocampal destruction by measuring increase in Nissl stained granular neurons in contralateral hippocampus DG region compound infused into hippocampal region and 10 mins later injected with PTZ and measured after 3 days by Nissl staining based microscopic analysis; type: functional, organism-based
Rattus norvegicus [6] = organism: Rattus norvegicus; experiment: as §1, with “pyramidal” for “granular”, “ipsilateral” for “contralateral”, “CA3” for “DG”; type: functional, organism-based
Homo sapiens [7] = organism: Homo sapiens; experiment: Inhibition of human BK alpha/human beta-4 E128K mutant expressed in HEK293T cells assessed as K+ fractional outward current at 10 uM at -80 mV holding potential by whole cell patch clamp technique relative to control; type: cell-based
[8] = molecular target: T1, KCNMA1/KCNMB4 (Rattus norvegicus) (UniProt Q62976+Q9ESK8); experiment: Inhibition of BK alpha/beta-4 in PTZ-stimulated rat hippocampal pyramidal neurons assessed as increase in AHP size at 300 pA at -80mV holding potential measured after 10 mins by whole cell current clamp assay; type: protein-complex assay
Rattus norvegicus [9] = organism: Rattus norvegicus; experiment: Anticonvulsant activity against PTZ-induced epileptic seizure Sprague-Dawley rat model assessed as mortality rate compound infused into hippocampal region and 10 mins later injected with PTZ and measured for 2 hrs post PTZ-stimulation (reference value: 33.33%); type: functional
[10] = molecular target: Calcium-activated potassium channel subunit beta-4 (Homo sapiens, UniProt Q86W47, E104K); experiment: Binding affinity to NT-495 fluorophore reagent labelled human BK beta4 E104K mutant incubated for 30 mins by microscale thermophoresis assay
[11] = molecular target: T1, KCNMA1/KCNMB4 (Rattus norvegicus); experiment: Inhibition of BK alpha/beta-4 in PTZ-stimulated rat hippocampal pyramidal neurons assessed as longer interval of interspike at -80mV holding potential measured after 10 mins during 300pA current injection by whole cell current clamp assay; type: protein-complex assay
Rattus norvegicus [12] = organism: Rattus norvegicus; experiment: Anticonvulsant activity against PTZ-induced epileptic seizure Sprague-Dawley rat model assessed as duration of seizure compound infused into hippocampal region and 10 mins later injected with PTZ and measured for 2 hrs post PTZ-stimulation (reference value: 376 +/- 76.43 sec); type: functional
Rattus norvegicus [13] = organism: Rattus norvegicus; experiment: Effect on neuronal network in PTZ-induced epileptic seizures Sprague-Dawley rat model assessed as lowered PSD at delta wave band compound infused into hippocampal region and 10 mins later injected with PTZ and measured after 2 hrs by power spectral density analysis; type: functional, organism-based
[14] = molecular target: T2, Calcium-activated potassium channel subunit beta-4 (Homo sapiens) (UniProt Q86W47); experiment: Binding affinity to 15N-labelled human BK beta4 (45 to 166 residues) at compound: protein mole ratio of 1:4 by 1H-15N HSQC NMR spectroscopy
T2 sequence (whole entry): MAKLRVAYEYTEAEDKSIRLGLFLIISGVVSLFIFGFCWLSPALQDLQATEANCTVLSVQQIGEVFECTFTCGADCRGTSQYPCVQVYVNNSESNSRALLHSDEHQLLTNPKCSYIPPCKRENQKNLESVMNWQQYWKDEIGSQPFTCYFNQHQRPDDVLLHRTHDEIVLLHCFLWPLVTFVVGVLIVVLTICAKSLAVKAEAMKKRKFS

Homo sapiens [15] = organism: Homo sapiens; experiment: Inhibition of human BK alpha/human beta-4 E104K mutant expressed in HEK293T cells assessed as K+ fractional outward current at 10 uM at -80 mV holding potential by whole cell patch clamp technique relative to control; type: cell-based

Chain of Calcium-activated potassium channel subunit beta-4 (Q86W47 whole entry E104K): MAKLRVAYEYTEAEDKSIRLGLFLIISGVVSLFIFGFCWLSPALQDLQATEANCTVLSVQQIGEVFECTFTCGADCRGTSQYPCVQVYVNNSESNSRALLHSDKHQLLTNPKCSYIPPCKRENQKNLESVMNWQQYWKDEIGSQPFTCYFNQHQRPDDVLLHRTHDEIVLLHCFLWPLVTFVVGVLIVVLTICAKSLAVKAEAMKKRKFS

In the case of CC[C@H](C)[C@H](NC(=O)[C@H](CC(C)C)NC(=O)CNC(=O)[C@H](Cc1ccccc1)NC(=O)[C@H](CO)NC(=O)CN)C(=O)N[C@@H](CC(=O)O)C(=O)N[C@H](C(=O)N[C@@H](CCCCN)C(=O)N[C@H]1CSSC[C@@H]2NC(=O)[C@H](CCCCN)NC(=O)CNC(=O)[C@H](CCC(N)=O)NC(=O)CNC(=O)[C@H](CO)NC(=O)CNC(=O)[C@H]([C@@H](C)O)NC(=O)[C@H](C(C)C)NC(=O)[C@H](CCCCN)NC(=O)[C@H](CCCCN)NC(=O)[C@@H]3CSSC[C@@H](C(=O)N[C@@H](Cc4ccc(O)cc4)C(=O)O)N[C@@H](CCCNC(=N)N)C(=O)[C@H](CSSC[C@H](NC(=O)[C@H](CCC(=O)O)NC(=O)[C@H](CO)NC(=O)[C@H](CO)NC(=O)[C@H](C)NC(=O)[C@H](Cc4ccccc4)NC1=O)C(=O)N[C@@H](Cc1c[nH]c4ccccc14)C(=O)N[C@@H]([C@@H](C)O)C(=O)N[C@@H](C)C(=O)N3)N[C@@H](CCC(N)=O)C(=O)NC(=O)[C@H](CC(N)=O)NC(=O)[C@H](CC(N)=O)NC(=O)[C@H](CCC(N)=O)NC2=O)C(C)C, the Time (Rattus norvegicus [1]) is reported as 378.5 s, the Activity (Rattus norvegicus [2]) is reported as “Active” and the Activity (Rattus norvegicus [3]) is reported as “Active”. For the same compound, the Ratio (Homo sapiens [4]) was 0.88, the Activity (Rattus norvegicus [5]) was “Active” and the Activity (Rattus norvegicus [6]) was “Active”. For the same compound, the Ratio (Homo sapiens [7]) was 0.75, the inhibition [8] was “Active” and the mortality (Rattus norvegicus [9]) was 0%. For the same compound, the Kd [10] was 782 µM, the inhibition [11] was “Active” and the Time (Rattus norvegicus [12]) was 198 s. For the same compound, the Activity (Rattus norvegicus [13]) was “Active”, the Activity [14] was “Active” and the Ratio (Homo sapiens [15]) was 0.94.
